# From US8476025B2, “ATM-dependent phosphorylation of Sp1 is involved in the cellular response to DNA damage and enhances cellular survival after DNA damage” (Philadelphia Health and Education Corporation, priority 2007, dated 2013)
# Like-named read-outs stand apart in the source and are kept apart here.
# What was measured:
# Sp1 phosphorylation [1] = conditions: NHDFs
# Sp1 phosphorylation [2] = conditions: fibroblasts with wild-type ATM, one hour exposure
# [3] = tested on: Phosphorylation of Sp1 and H2AX; experiment: Immunoblot of H2O2-induced Sp1 and H2AX phosphorylation in NHDFs pretreated with wortmannin or KU55933; assay type: cell-based, human; conditions: 200 μM H2O2, pre-treatment with 10 μM KU55933
# ATM = ATM (Homo sapiens, UniProt Q13315); conditions: Hickson et al. 2004; cited from earlier work
# ATM kinase activity = experiment: Indirect immunofluorescence for γSp1^101 and phospho-ATMs1981 in UV-exposed U2OS cells; assay type: cell-based, human; conditions: 0.5 J/m^2 UV, pre-treated with 10 μM KU55933
# Method: U2OS cells were plated onto glass coverslips 24-36 hours before treatment. […] U2OS cells were washed in ice-cold PBS twice and pre-extracted in 0.2% Triton X-100/30% ddH2O/20 mM PMSF in PBS for 5 minutes at 4° C. Cells were then washed with PBS and fixed in 2% Para-formaldehyde/3% sucrose in PBS for 10 minutes at room temperature. Cells were washed twice in PBS at room temperature then permeablized in 0.5% Triton X-100 in PBS for 5 minutes at 4° C. Cells were washed 2 times in room temperature PBST (0.1% Tween 20, 0.02% Sodium azide in PBS) and incubated in primary antibody overnight at 4° C., mouse monoclonal γH2AX (ser139, Upstate Biotechnology), diluted 1:1000 in PBST solution, mouse P-ATMser1981 (Cell Signalling, diluted 1:1000) or rabbit polyclonal γSp1^101 (diluted 1:500, 21st Century Biotechnology). Cells were washed in PBST three times followed by the addition of secondary antibody, AlexaFlour488 donkey anti-rabbit, diluted 1:1000 in PBST and AlexaFlour594 donkey anti-mouse antibody, diluted 1:1000 in PBST for 1 hours in the dark. Cells were washed 4 times with PBST. Slides were mounted using Vectashield mounting medium containing DAPI (Vector Labs).
# [4] = assay type: cell-based, human; conditions: U2OS, 10 μM ATM inhibitor, 200 μM H2O2
# [5] = tested on: Sp1 phosphorylation at serine 101; assay type: cell-based, human; conditions: U2OS, 10 μM ATM inhibitor
# U2OS cells = experiment: Clonogenic rescue experiment in Sp1-depleted U2OS cells exposed to H2O2; assay type: cell-based, human; conditions: H2O2 for one hour, colonies counted after 11 days
# Method: In the case of the rescue experiment, U2OS cells were transfected with siRNA and replated 72 hours later. The cells were then transfected with WT Sp1 or Sp1-101A and 48 hours later cells were exposed to H2O2 and re-seeded onto 60 mm dishes. Colonies were fixed and stained in crystal violet 11 days after plating and then counted.
# Chain of ATM (Q13315 whole entry): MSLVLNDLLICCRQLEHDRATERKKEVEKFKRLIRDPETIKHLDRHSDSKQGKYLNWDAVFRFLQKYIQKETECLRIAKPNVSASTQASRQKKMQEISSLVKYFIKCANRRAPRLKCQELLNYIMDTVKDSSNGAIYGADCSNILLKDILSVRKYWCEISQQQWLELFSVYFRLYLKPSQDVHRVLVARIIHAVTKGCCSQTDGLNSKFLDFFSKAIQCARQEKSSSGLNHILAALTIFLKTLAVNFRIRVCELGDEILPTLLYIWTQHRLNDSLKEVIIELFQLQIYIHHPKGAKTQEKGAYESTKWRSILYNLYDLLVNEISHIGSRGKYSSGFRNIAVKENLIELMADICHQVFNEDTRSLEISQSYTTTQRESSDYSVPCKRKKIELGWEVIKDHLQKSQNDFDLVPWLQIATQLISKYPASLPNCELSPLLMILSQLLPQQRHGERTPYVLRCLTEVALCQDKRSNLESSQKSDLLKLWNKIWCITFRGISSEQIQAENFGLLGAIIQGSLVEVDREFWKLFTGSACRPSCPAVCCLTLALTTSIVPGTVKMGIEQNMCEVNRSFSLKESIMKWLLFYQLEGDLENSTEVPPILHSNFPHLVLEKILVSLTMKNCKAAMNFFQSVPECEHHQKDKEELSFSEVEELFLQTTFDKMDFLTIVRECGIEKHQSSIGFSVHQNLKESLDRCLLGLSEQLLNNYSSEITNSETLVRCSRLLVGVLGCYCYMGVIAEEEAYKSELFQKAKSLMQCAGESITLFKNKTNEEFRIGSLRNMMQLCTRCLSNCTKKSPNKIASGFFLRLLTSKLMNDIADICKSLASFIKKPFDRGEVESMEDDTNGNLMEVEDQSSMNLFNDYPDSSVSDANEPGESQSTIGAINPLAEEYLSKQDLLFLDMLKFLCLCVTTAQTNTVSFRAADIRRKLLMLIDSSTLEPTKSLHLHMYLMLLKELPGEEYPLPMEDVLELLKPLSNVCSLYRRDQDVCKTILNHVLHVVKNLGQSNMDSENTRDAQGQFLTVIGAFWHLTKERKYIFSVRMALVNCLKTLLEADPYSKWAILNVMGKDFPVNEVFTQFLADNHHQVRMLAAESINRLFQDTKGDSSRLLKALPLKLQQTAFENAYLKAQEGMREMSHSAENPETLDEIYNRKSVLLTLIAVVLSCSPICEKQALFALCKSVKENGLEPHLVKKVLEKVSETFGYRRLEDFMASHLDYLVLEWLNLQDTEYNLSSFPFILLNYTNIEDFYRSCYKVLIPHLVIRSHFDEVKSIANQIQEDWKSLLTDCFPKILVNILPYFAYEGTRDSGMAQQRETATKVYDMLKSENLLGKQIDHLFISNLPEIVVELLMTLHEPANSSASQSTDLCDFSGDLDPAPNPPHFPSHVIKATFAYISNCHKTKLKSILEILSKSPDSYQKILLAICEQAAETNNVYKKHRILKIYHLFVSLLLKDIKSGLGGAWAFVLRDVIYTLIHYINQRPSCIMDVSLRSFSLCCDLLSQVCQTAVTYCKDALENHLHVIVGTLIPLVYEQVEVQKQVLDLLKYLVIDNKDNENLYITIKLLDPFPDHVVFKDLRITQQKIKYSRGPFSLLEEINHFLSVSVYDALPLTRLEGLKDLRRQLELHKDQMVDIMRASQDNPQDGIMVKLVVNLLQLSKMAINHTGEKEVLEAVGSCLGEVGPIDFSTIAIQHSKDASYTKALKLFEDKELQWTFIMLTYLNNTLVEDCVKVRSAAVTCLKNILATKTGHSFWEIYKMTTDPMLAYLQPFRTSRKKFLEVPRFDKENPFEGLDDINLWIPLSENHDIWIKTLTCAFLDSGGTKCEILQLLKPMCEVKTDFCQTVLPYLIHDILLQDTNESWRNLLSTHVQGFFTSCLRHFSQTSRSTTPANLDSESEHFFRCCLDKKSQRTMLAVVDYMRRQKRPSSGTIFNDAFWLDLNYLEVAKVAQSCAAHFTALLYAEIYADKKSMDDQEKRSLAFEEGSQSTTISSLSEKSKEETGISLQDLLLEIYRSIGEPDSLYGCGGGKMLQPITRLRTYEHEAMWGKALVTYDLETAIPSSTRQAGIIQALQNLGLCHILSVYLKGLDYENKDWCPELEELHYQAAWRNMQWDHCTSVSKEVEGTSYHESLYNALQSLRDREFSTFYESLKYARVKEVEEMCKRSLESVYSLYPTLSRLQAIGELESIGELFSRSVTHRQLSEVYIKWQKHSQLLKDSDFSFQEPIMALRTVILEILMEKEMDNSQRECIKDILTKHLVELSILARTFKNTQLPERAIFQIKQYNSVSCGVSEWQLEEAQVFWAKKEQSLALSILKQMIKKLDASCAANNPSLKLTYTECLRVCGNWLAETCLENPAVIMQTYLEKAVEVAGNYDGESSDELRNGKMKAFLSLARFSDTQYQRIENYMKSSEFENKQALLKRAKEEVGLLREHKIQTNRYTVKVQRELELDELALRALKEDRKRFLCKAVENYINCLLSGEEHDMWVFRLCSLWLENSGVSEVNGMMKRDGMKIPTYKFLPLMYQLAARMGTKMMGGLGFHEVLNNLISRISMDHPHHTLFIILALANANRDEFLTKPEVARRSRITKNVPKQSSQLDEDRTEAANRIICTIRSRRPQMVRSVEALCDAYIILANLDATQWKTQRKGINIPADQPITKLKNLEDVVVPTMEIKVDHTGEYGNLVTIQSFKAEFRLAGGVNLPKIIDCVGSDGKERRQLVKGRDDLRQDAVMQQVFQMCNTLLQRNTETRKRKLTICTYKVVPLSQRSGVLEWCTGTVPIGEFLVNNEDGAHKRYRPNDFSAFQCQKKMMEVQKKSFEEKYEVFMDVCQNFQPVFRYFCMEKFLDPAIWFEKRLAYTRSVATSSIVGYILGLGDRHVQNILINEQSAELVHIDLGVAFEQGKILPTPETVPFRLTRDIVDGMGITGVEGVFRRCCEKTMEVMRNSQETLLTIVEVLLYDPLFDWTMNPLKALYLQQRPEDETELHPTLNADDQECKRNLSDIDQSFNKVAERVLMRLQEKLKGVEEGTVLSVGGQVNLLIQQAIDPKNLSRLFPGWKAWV
molecule,measurement,setting,value
"OO [H2O2, hydrogen peroxide]",Time by which the 95 kDa form of Sp1 became the predominant species again,Sp1 phosphorylation [1]; 200 μM H2O2,≤ 8 h
same,Time of peak Sp1 phosphorylation,Sp1 phosphorylation [1]; 200 μM H2O2,one hour
same,Time to first observed Sp1 phosphorylation post-treatment,Sp1 phosphorylation [1]; 200 μM H2O2,15 min
same,H2O2 concentration at which 105 kDa becomes the major Sp1 species,Sp1 phosphorylation [1]; one hour exposure,200 µM
same,H2O2 concentration at which the Sp1 shift to 105 kDa is detected,Sp1 phosphorylation [1]; one hour exposure,50 µM
same,H2O2 concentration at which Sp1 was shifted completely to the 105 kDa form,Sp1 phosphorylation [2],25 µM
O=c1cc(-c2cccc3c2Sc2ccccc2S3)oc(N2CCOCC2)c1 [KU55933],H2O2-induced phosphorylation of Sp1 and H2AX,[3],reduced but not abolished
same,ATM kinase activity,ATM,inhibited
same,ATM phosphorylation at serine 1981,ATM kinase activity,still phosphorylated
same,γSp1^101 immunofluorescence signal,ATM kinase activity,lack of γSp1^101
same,Phosphorylation of H2AX,[4],diminished
same,Electromobility shift in Sp1 from the 95 kDa to 105 kDa form,[5]; 200 μM H2O2 for one hour,blocked
same,Phosphorylation of Sp1 at serine 101,[5]; 200 μM H2O2 for one hour,abolished
same,Overall electromobility shift of total Sp1,[5]; 30 J/m^2 UV for four hours,partial reduction
same,Phosphorylation of Sp1 at serine 101,[5]; 30 J/m^2 UV for four hours,abolished
"Sp1^S101A: exogenously expressed Sp1 mutant with serine 101 changed to Ala, not phosphorylated in response to damage",Colony survival in response to H2O2,U2OS cells,failed to rescue
"wild-type Sp1: exogenously expressed wild-type Sp1 (SEQ ID NO: 2) with HA-tag, transfected in pFLAG-CMV2",Colony survival in response to H2O2,U2OS cells,restored survival to the level observed with non-targeting RNAi
